In ChEMBL document CHEMBL3885881, “DrugMatrix”:

Species: Rattus norvegicus
Assay: DrugMatrix - Regimen: Daily Repeat
Type: toxicity, organism-based, Sprague-Dawley
Design: regimen Daily Repeat, gender Male, age 6-8 weeks
Details: in vivo, po, route oral GAVAGE, vehicle .5 % CMC; for ABSOLUTE BASOPHIL / ABSOLUTE EOSINOPHIL / ABSOLUTE LYMPHOCYTE / ABSOLUTE MONOCYTE / ABSOLUTE SEGMENTED NEUTROPHIL / BASOPHIL / EOSINOPHIL / ERYTHROCYTE COUNT / HEMATOCRIT / HEMOGLOBIN / LEUKOCYTE COUNT / LYMPHOCYTE / MEAN CORPUSCULAR HEMOGLOBIN / MEAN CORPUSCULAR HEMOGLOBIN CONCENTRATION / MEAN CORPUSCULAR VOLUME / MONOCYTE / NEUTROPHIL / NUCLEATED RED BLOOD CELLS / PLATELET COUNT: tissue Blood; for ALANINE AMINOTRANSFERASE / ALBUMIN / ALKALINE PHOSPHATASE / ASPARTATE AMINOTRANSFERASE / BLOOD UREA NITROGEN / CARBON DIOXIDE / CHLORIDE / CHOLESTEROL / CREATINE PHOSPHOKINASE / CREATININE / GLUCOSE / LACTATE DEHYDROGENASE / LIPASE / PHOSPHORUS / POTASSIUM / SODIUM / TOTAL BILIRUBIN / TOTAL PROTEIN / URIC ACID: tissue Plasma
[1] = 50 mg/kg, 120 h, dose level Low, time 5 day
[2] = 500 mg/kg, 72 h, dose level High, time 3 day
[3] = 500 mg/kg, 120 h, dose level High, time 5 day

SMILES: CC1(C)[C@H]2CC[C@]1(C)C(=O)C2 [(-)-CAMPHOR]
- ABSOLUTE BASOPHIL [1]: 0 CELLS/uL
- ABSOLUTE EOSINOPHIL [1]: 46.67 CELLS/uL
- ABSOLUTE LYMPHOCYTE [1]: 13460 CELLS/uL
- ABSOLUTE MONOCYTE [1]: 0 CELLS/uL
- ABSOLUTE SEGMENTED NEUTROPHIL [1]: 2360 CELLS/uL
- BASOPHIL [1]: 0%
- EOSINOPHIL [1]: 0.33%
- ERYTHROCYTE COUNT [1]: 5.24 x10E6/uL
- HEMATOCRIT [1]: 32.6%
- HEMOGLOBIN [1]: 12.5 G/DL
- LEUKOCYTE COUNT [1]: 15.87 x10E3/uL
- LYMPHOCYTE [1]: 86.33%
- MEAN CORPUSCULAR HEMOGLOBIN [1]: 23.9 pg
- MEAN CORPUSCULAR HEMOGLOBIN CONCENTRATION [1]: 38.33 G/DL
- MEAN CORPUSCULAR VOLUME [1]: 62.27 fL
- MONOCYTE [1]: 0%
- NEUTROPHIL [1]: 13.33%
- NUCLEATED RED BLOOD CELLS [1]: 0 /100WBC
- PLATELET COUNT [1]: 1253.67 x10E3/uL
- ALANINE AMINOTRANSFERASE [1]: 61.33 u/L
- ALBUMIN [1]: 4.37 G/DL
- ALKALINE PHOSPHATASE [1]: 416.33 u/L
- ASPARTATE AMINOTRANSFERASE [1]: 88.33 u/L
- BLOOD UREA NITROGEN [1]: 18.67 mg/dL
- CARBON DIOXIDE [1]: 22.67 mmol/L
- CHLORIDE [1]: 102.67 MEQ/L
- CHOLESTEROL [1]: 64.33 mg/dL
- CREATINE PHOSPHOKINASE [1]: 328 u/L
- CREATININE [1]: 0.25 mg/dL
- GLUCOSE [1]: 194.33 mg/dL
- LACTATE DEHYDROGENASE [1]: 167.67 u/L
- LIPASE [1]: 9 u/L
- PHOSPHORUS [1]: 12.53 mg/dL
- POTASSIUM [1]: 6.26 MEQ/L
- SODIUM [1]: 143.3 MEQ/L
- TOTAL BILIRUBIN [1]: 0.17 mg/dL
- TOTAL PROTEIN [1]: 6.13 G/DL
- URIC ACID [1]: 2.63 mg/dL
- ABSOLUTE BASOPHIL [2]: 0 CELLS/uL
- ABSOLUTE EOSINOPHIL [2]: 155.67 CELLS/uL
- ABSOLUTE LYMPHOCYTE [2]: 12828.67 CELLS/uL
- ABSOLUTE MONOCYTE [2]: 0 CELLS/uL
- ABSOLUTE SEGMENTED NEUTROPHIL [2]: 1649 CELLS/uL
- BASOPHIL [2]: 0%
- EOSINOPHIL [2]: 1%
- ERYTHROCYTE COUNT [2]: 5.48 x10E6/uL
- HEMATOCRIT [2]: 34.93%
- HEMOGLOBIN [2]: 13.23 G/DL
- LEUKOCYTE COUNT [2]: 14.63 x10E3/uL
- LYMPHOCYTE [2]: 88.33%
- MEAN CORPUSCULAR HEMOGLOBIN [2]: 24.13 pg
- MEAN CORPUSCULAR HEMOGLOBIN CONCENTRATION [2]: 37.9 G/DL
- MEAN CORPUSCULAR VOLUME [2]: 63.7 fL
- MONOCYTE [2]: 0%
- NEUTROPHIL [2]: 10.67%
- NUCLEATED RED BLOOD CELLS [2]: 0 /100WBC
- PLATELET COUNT [2]: 1178.33 x10E3/uL
- ALANINE AMINOTRANSFERASE [2]: 50.67 u/L
- ALBUMIN [2]: 4.3 G/DL
- ALKALINE PHOSPHATASE [2]: 369.33 u/L
- ASPARTATE AMINOTRANSFERASE [2]: 74.67 u/L
- BLOOD UREA NITROGEN [2]: 14 mg/dL
- CARBON DIOXIDE [2]: 26.67 mmol/L
- CHLORIDE [2]: 100.33 MEQ/L
- CHOLESTEROL [2]: 67.67 mg/dL
- CREATINE PHOSPHOKINASE [2]: 382.33 u/L
- CREATININE [2]: 0.15 mg/dL
- GLUCOSE [2]: 154 mg/dL
- LACTATE DEHYDROGENASE [2]: 99 u/L
- LIPASE [2]: 9 u/L
- PHOSPHORUS [2]: 12.53 mg/dL
- POTASSIUM [2]: 6.1 MEQ/L
- SODIUM [2]: 145.07 MEQ/L
- TOTAL BILIRUBIN [2]: 0.2 mg/dL
- TOTAL PROTEIN [2]: 5.93 G/DL
- URIC ACID [2]: 1.47 mg/dL
- ABSOLUTE BASOPHIL [3]: 0 CELLS/uL
- ABSOLUTE EOSINOPHIL [3]: 124.33 CELLS/uL
- ABSOLUTE LYMPHOCYTE [3]: 12652.67 CELLS/uL
- ABSOLUTE MONOCYTE [3]: 0 CELLS/uL
- ABSOLUTE SEGMENTED NEUTROPHIL [3]: 1356.33 CELLS/uL
- BASOPHIL [3]: 0%
- EOSINOPHIL [3]: 1%
- ERYTHROCYTE COUNT [3]: 5.72 x10E6/uL
- HEMATOCRIT [3]: 37.43%
- HEMOGLOBIN [3]: 14.2 G/DL
- LEUKOCYTE COUNT [3]: 14.13 x10E3/uL
- LYMPHOCYTE [3]: 89.67%
- MEAN CORPUSCULAR HEMOGLOBIN [3]: 24.83 pg
- MEAN CORPUSCULAR HEMOGLOBIN CONCENTRATION [3]: 37.93 G/DL
- MEAN CORPUSCULAR VOLUME [3]: 65.4 fL
- MONOCYTE [3]: 0%
- NEUTROPHIL [3]: 9.33%
- NUCLEATED RED BLOOD CELLS [3]: 0 /100WBC
- PLATELET COUNT [3]: 1132 x10E3/uL
- ALANINE AMINOTRANSFERASE [3]: 46.67 u/L
- ALBUMIN [3]: 4.47 G/DL
- ALKALINE PHOSPHATASE [3]: 355.33 u/L
- ASPARTATE AMINOTRANSFERASE [3]: 67.33 u/L
- BLOOD UREA NITROGEN [3]: 15 mg/dL
- CARBON DIOXIDE [3]: 26.67 mmol/L
- CHLORIDE [3]: 101 MEQ/L
- CHOLESTEROL [3]: 59 mg/dL
- CREATINE PHOSPHOKINASE [3]: 203.33 u/L
- CREATININE [3]: 0.17 mg/dL
- GLUCOSE [3]: 169.67 mg/dL
- LACTATE DEHYDROGENASE [3]: 99.33 u/L
- LIPASE [3]: 9 u/L
- PHOSPHORUS [3]: 12.5 mg/dL
- POTASSIUM [3]: 7.1 MEQ/L
- SODIUM [3]: 145.87 MEQ/L
- TOTAL BILIRUBIN [3]: 0.2 mg/dL
- TOTAL PROTEIN [3]: 6.37 G/DL
- URIC ACID [3]: 1.77 mg/dL
